Test results: ChEMBL document CHEMBL3885861, “Open TG-GATES”

Species: Rattus norvegicus
Assay: Open TG-GATES - Regimen: Daily Repeat
Format: toxicity, organism-based, Sprague-Dawley
Set-up: regimen Daily Repeat, gender Male, age 6 weeks
Conditions: in vivo, po, route gavage; for APTT / Bas / Eos / Fbg / Hb / Ht / Lym / MCHC / MCV / Mono / Neu / PT / Plat / RBC / Ret / WBC: tissue Blood; for KIDNEY_L / KIDNEY_R / KIDNEY_TOTAL: tissue Kidney; for LIVER: tissue Liver; for ALP / ALT / AST / BUN / CRE / Ca / Cl / DBIL / GLC / IP / K / LDH / Na / PL / RALB / TBIL / TC / TG / TP / gamma-GTP: tissue Plasma
[1] = 0 mg/kg, 72 h, dose level Control, time 3 day
[2] = 0 mg/kg, […], dose level Control, time 7 day
[3] = 0 mg/kg, […], dose level Control, time 14 day
[4] = 0 mg/kg, […], dose level Control, time 28 day
[5] = 15 mg/kg, 72 h, dose level Low, time 3 day
[6] = 15 mg/kg, […], dose level Low, time 7 day
[7] = 15 mg/kg, […], dose level Low, time 14 day
[8] = 15 mg/kg, […], dose level Low, time 28 day

C1CCC(C(CC2CCCCN2)C2CCCCC2)CC1 (stereo not drawn) [PERHEXILINE]
TERMINAL_BW [1]: 228.9 g
APTT [1]: 21.9 s
Bas [1]: 0%
Eos [1]: 0.8%
Fbg [1]: 312.4 mg/dL
Hb [1]: 13.2 g/dL
Ht [1]: 39.2%
Lym [1]: 79%
MCHC [1]: 33.8%
MCV [1]: 63.9 fL
Mono [1]: 2.8%
Neu [1]: 16.2%
PT [1]: 16.7 s
Plat [1]: 133 x10_4/uL
RBC [1]: 613.6 x10_4/ul
Ret [1]: 7%
WBC [1]: 89.3 x10_2/uL
KIDNEY_L [1]: 1.1 g
KIDNEY_R [1]: 1 g
KIDNEY_TOTAL [1]: 2.1 g
LIVER [1]: 11.1 g
ALP [1]: 1695 IU/L
ALT [1]: 45.8 IU/L
AST [1]: 76.4 IU/L
BUN [1]: 16.4 mg/dL
CRE [1]: 0.1 mg/dL
Ca [1]: 11 mg/dL
Cl [1]: 107.2 meq/L
DBIL [1]: 0 mg/dL
GLC [1]: 192.6 mg/dL
IP [1]: 6.9 mg/dL
K [1]: 4.3 meq/L
LDH [1]: 248.8 IU/L
Na [1]: 143.2 meq/L
PL [1]: 149.4 mg/dL
RALB [1]: 3.2 g/dL
TBIL [1]: 0.01 mg/dL
TC [1]: 75.6 mg/dL
TG [1]: 113.8 mg/dL
TP [1]: 5.8 g/dL
gamma-GTP [1]: 1 IU/L
TERMINAL_BW [2]: 255.2 g
TERMINAL_BW [3]: 290.3 g
TERMINAL_BW [4]: 335.5 g
APTT [2]: 21.5 s
Bas [2]: 0%
Eos [2]: 0.6%
Fbg [2]: 316.4 mg/dL
Hb [2]: 13.5 g/dL
Ht [2]: 38.5%
Lym [2]: 81.8%
MCHC [2]: 35.2%
MCV [2]: 61.3 fL
Mono [2]: 1.4%
Neu [2]: 15%
PT [2]: 16.1 s
Plat [2]: 118.5 x10_4/uL
RBC [2]: 629 x10_4/ul
Ret [2]: 5.6%
WBC [2]: 110.4 x10_2/uL
APTT [3]: 23.3 s
Bas [3]: 0%
Eos [3]: 0.2%
Fbg [3]: 294 mg/dL
Hb [3]: 15 g/dL
Ht [3]: 42.7%
Lym [3]: 82%
MCHC [3]: 35.2%
MCV [3]: 60.8 fL
Mono [3]: 1.2%
Neu [3]: 15.2%
PT [3]: 16.2 s
Plat [3]: 116.2 x10_4/uL
RBC [3]: 702.8 x10_4/ul
Ret [3]: 3.5%
WBC [3]: 97.2 x10_2/uL
APTT [4]: 21.5 s
Bas [4]: 0%
Eos [4]: 0.6%
Fbg [4]: 316.4 mg/dL
Hb [4]: 13.5 g/dL
Ht [4]: 38.5%
Lym [4]: 81.8%
MCHC [4]: 35.2%
MCV [4]: 61.3 fL
Mono [4]: 1.4%
Neu [4]: 15%
PT [4]: 16.1 s
Plat [4]: 118.5 x10_4/uL
RBC [4]: 629 x10_4/ul
Ret [4]: 5.6%
WBC [4]: 110.4 x10_2/uL
KIDNEY_L [2]: 1.1 g
KIDNEY_R [2]: 1.1 g
KIDNEY_TOTAL [2]: 2.2 g
KIDNEY_L [3]: 1.1 g
KIDNEY_R [3]: 1.1 g
KIDNEY_TOTAL [3]: 2.3 g
KIDNEY_L [4]: 1.2 g
KIDNEY_R [4]: 1.2 g
KIDNEY_TOTAL [4]: 2.5 g
LIVER [2]: 11.8 g
LIVER [3]: 12.3 g
LIVER [4]: 12.9 g
ALP [2]: 1691 IU/L
ALT [2]: 38 IU/L
AST [2]: 67.6 IU/L
BUN [2]: 18.6 mg/dL
CRE [2]: 0.2 mg/dL
Ca [2]: 10.5 mg/dL
Cl [2]: 106.6 meq/L
DBIL [2]: 0.002 mg/dL
GLC [2]: 190.4 mg/dL
IP [2]: 6.8 mg/dL
K [2]: 4.1 meq/L
LDH [2]: 174.2 IU/L
Na [2]: 143.6 meq/L
PL [2]: 152.6 mg/dL
RALB [2]: 3.1 g/dL
TBIL [2]: 0.014 mg/dL
TC [2]: 79.8 mg/dL
TG [2]: 101 mg/dL
TP [2]: 5.8 g/dL
gamma-GTP [2]: 1.6 IU/L
ALP [3]: 1487.8 IU/L
ALT [3]: 39.2 IU/L
AST [3]: 71.8 IU/L
BUN [3]: 19 mg/dL
CRE [3]: 0.2 mg/dL
Ca [3]: 10.2 mg/dL
Cl [3]: 107 meq/L
DBIL [3]: 0 mg/dL
GLC [3]: 192 mg/dL
IP [3]: 6.1 mg/dL
K [3]: 4.2 meq/L
LDH [3]: 180 IU/L
Na [3]: 143.2 meq/L
PL [3]: 134 mg/dL
RALB [3]: 3.2 g/dL
TBIL [3]: 0.005 mg/dL
TC [3]: 59 mg/dL
TG [3]: 131.5 mg/dL
TP [3]: 5.8 g/dL
gamma-GTP [3]: 1 IU/L
ALP [4]: 1236.4 IU/L
ALT [4]: 34.4 IU/L
AST [4]: 60 IU/L
BUN [4]: 17.8 mg/dL
CRE [4]: 0.2 mg/dL
Ca [4]: 10.1 mg/dL
Cl [4]: 108.6 meq/L
DBIL [4]: 0 mg/dL
GLC [4]: 204.2 mg/dL
IP [4]: 5.6 mg/dL
K [4]: 4.2 meq/L
LDH [4]: 148.4 IU/L
Na [4]: 143.6 meq/L
PL [4]: 129.6 mg/dL
RALB [4]: 3 g/dL
TBIL [4]: 0.008 mg/dL
TC [4]: 63 mg/dL
TG [4]: 92.8 mg/dL
TP [4]: 6 g/dL
gamma-GTP [4]: 1.4 IU/L
TERMINAL_BW [5]: 221.1 g
APTT [5]: 22 s
Bas [5]: 0%
Eos [5]: 0.8%
Fbg [5]: 313.4 mg/dL
Hb [5]: 13.4 g/dL
Ht [5]: 39.5%
Lym [5]: 82.4%
MCHC [5]: 33.7%
MCV [5]: 62.1 fL
Mono [5]: 1.6%
Neu [5]: 14.2%
PT [5]: 16.6 s
Plat [5]: 127.5 x10_4/uL
RBC [5]: 637.8 x10_4/ul
Ret [5]: 5.8%
WBC [5]: 90.6 x10_2/uL
KIDNEY_L [5]: 1 g
KIDNEY_R [5]: 1 g
KIDNEY_TOTAL [5]: 2 g
LIVER [5]: 10.6 g
ALP [5]: 1691.8 IU/L
ALT [5]: 40.6 IU/L
AST [5]: 69.8 IU/L
BUN [5]: 16.2 mg/dL
CRE [5]: 0.2 mg/dL
Ca [5]: 10.8 mg/dL
Cl [5]: 106.4 meq/L
DBIL [5]: 0 mg/dL
GLC [5]: 186.2 mg/dL
IP [5]: 6.6 mg/dL
K [5]: 4.2 meq/L
LDH [5]: 253.2 IU/L
Na [5]: 142.6 meq/L
PL [5]: 150 mg/dL
RALB [5]: 3.1 g/dL
TBIL [5]: 0.008 mg/dL
TC [5]: 74 mg/dL
TG [5]: 131 mg/dL
TP [5]: 5.7 g/dL
gamma-GTP [5]: 1 IU/L
TERMINAL_BW [6]: 248.3 g
TERMINAL_BW [7]: 309.8 g
TERMINAL_BW [8]: 362.5 g
APTT [6]: 22.8 s
Bas [6]: 0%
Eos [6]: 1%
Fbg [6]: 313.2 mg/dL
Hb [6]: 13.6 g/dL
Ht [6]: 39.9%
Lym [6]: 79.4%
MCHC [6]: 34%
MCV [6]: 62.5 fL
Mono [6]: 2.2%
Neu [6]: 16.6%
PT [6]: 16 s
Plat [6]: 115.3 x10_4/uL
RBC [6]: 639.4 x10_4/ul
Ret [6]: 5.3%
WBC [6]: 110.7 x10_2/uL
APTT [7]: 23.1 s
Bas [7]: 0%
Eos [7]: 0.4%
Fbg [7]: 320.2 mg/dL
Hb [7]: 14.9 g/dL
Ht [7]: 42.6%
Lym [7]: 82.8%
MCHC [7]: 35%
MCV [7]: 60.8 fL
Mono [7]: 1.6%
Neu [7]: 13.8%
PT [7]: 16.1 s
Plat [7]: 112 x10_4/uL
RBC [7]: 702.2 x10_4/ul
Ret [7]: 3.7%
WBC [7]: 125.7 x10_2/uL
APTT [8]: 22.8 s
Bas [8]: 0%
Eos [8]: 1%
Fbg [8]: 313.2 mg/dL
Hb [8]: 13.6 g/dL
Ht [8]: 39.9%
Lym [8]: 79.4%
MCHC [8]: 34%
MCV [8]: 62.5 fL
Mono [8]: 2.2%
Neu [8]: 16.6%
PT [8]: 16 s
Plat [8]: 115.3 x10_4/uL
RBC [8]: 639.4 x10_4/ul
Ret [8]: 5.3%
WBC [8]: 110.7 x10_2/uL
KIDNEY_L [6]: 1.1 g
KIDNEY_R [6]: 1.1 g
KIDNEY_TOTAL [6]: 2.1 g
KIDNEY_L [7]: 1.2 g
KIDNEY_R [7]: 1.2 g
KIDNEY_TOTAL [7]: 2.4 g
KIDNEY_L [8]: 1.3 g
KIDNEY_R [8]: 1.3 g
KIDNEY_TOTAL [8]: 2.6 g
LIVER [6]: 12 g
LIVER [7]: 13 g
LIVER [8]: 14.5 g
ALP [6]: 1491.4 IU/L
ALT [6]: 41 IU/L
AST [6]: 70.8 IU/L
BUN [6]: 17 mg/dL
CRE [6]: 0.2 mg/dL
Ca [6]: 10.3 mg/dL
Cl [6]: 106.8 meq/L
DBIL [6]: 0 mg/dL
GLC [6]: 199.8 mg/dL
IP [6]: 7.2 mg/dL
K [6]: 4.2 meq/L
LDH [6]: 213.8 IU/L
Na [6]: 143.6 meq/L
PL [6]: 157.8 mg/dL
RALB [6]: 3 g/dL
TBIL [6]: 0.004 mg/dL
TC [6]: 75 mg/dL
TG [6]: 162.4 mg/dL
TP [6]: 5.7 g/dL
gamma-GTP [6]: 1.6 IU/L
ALP [7]: 1618.8 IU/L
ALT [7]: 41.2 IU/L
AST [7]: 73.8 IU/L
BUN [7]: 18.6 mg/dL
CRE [7]: 0.2 mg/dL
Ca [7]: 10.5 mg/dL
Cl [7]: 107 meq/L
DBIL [7]: 0 mg/dL
GLC [7]: 191.8 mg/dL
IP [7]: 6.1 mg/dL
K [7]: 4.1 meq/L
LDH [7]: 207.4 IU/L
Na [7]: 143.8 meq/L
PL [7]: 145.4 mg/dL
RALB [7]: 3.2 g/dL
TBIL [7]: 0.004 mg/dL
TC [7]: 65.4 mg/dL
TG [7]: 177.2 mg/dL
TP [7]: 6 g/dL
gamma-GTP [7]: 1.6 IU/L
ALP [8]: 1153.2 IU/L
ALT [8]: 39.4 IU/L
AST [8]: 63.6 IU/L
BUN [8]: 18.2 mg/dL
CRE [8]: 0.2 mg/dL
Ca [8]: 10.3 mg/dL
Cl [8]: 108 meq/L
DBIL [8]: 0.002 mg/dL
GLC [8]: 191 mg/dL
IP [8]: 6.4 mg/dL
K [8]: 4 meq/L
LDH [8]: 156 IU/L
Na [8]: 144.4 meq/L
PL [8]: 138.6 mg/dL
RALB [8]: 3.2 g/dL
TBIL [8]: 0.012 mg/dL
TC [8]: 63.2 mg/dL
TG [8]: 130.2 mg/dL
TP [8]: 6.2 g/dL
gamma-GTP [8]: 1.2 IU/L
